Results published in PMC8243516, “Inhibition of lysosomal phospholipase A2 predicts drug-induced phospholipidosis” (Journal of Lipid Research, 2021).
“Also recorded” adds a separate entry of the source. Where two headings read alike, the source gives them in different places.

What was measured:
MDCK cells [1] = test system: MDCK cells
LPLA2 [2] = target: T1, LPLA2 (Mus musculus, UniProt Q8VEB4); test: LPLA2 thermal stability measurement (SYPRO Orange Tm); format: binding; conditions: N=3 ± SD
T1 construct: purchased Proteos Inc. (Kalamazoo, MI)
T1 sequence (Q8VEB4 34-412): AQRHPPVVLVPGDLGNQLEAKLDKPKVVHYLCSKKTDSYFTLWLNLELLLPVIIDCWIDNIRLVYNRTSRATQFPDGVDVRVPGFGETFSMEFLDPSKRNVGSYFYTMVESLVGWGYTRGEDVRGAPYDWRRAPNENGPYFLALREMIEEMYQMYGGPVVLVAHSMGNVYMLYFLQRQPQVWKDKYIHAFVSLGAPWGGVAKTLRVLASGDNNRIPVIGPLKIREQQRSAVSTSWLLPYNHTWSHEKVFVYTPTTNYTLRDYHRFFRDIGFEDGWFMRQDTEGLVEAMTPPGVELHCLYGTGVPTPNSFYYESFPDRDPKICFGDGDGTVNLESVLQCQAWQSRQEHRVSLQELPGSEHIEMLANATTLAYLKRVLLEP

[3] = target: T2, recombinant mouse LPLA2 (PLA2G15) (Mus musculus, UniProt Q8VEB4); test: Transacylase activity of LPLA2 (1-O-acyl-N-acetylsphingosine synthase, cell-free liposome assay); format: biochemical; conditions: read-out: LPLA2 IC50
T2 construct: purchased Proteos Inc. (Kalamazoo, MI)
T2 sequence (Q8VEB4 34-412): T1 sequence (Q8VEB4 34-412)

phospholipidosis [4] = conditions: phospholipidosis reported in vivo, species codes; Refs of Table 1; cited from earlier work
phospholipidosis [5] = conditions: phospholipidosis reported in vitro; Refs of Table 1; cited from earlier work
[6] = cited from earlier work
LPLA2 [7] = target: T1, LPLA2; test: LPLA2 transacylation activity toward p-NPB (1-O-butanoyl-N-acetylsphingosine formation); format: biochemical; conditions: 250 nM fosinopril; LPLA2, N-acetylsphingosine and p-NPB as monodispersion
MDCK cells [8] = test: LipidTOX red particle quantification by fluorescence microscopy; format: cell-based
MDCK cells [9] = test: Screening phospholipidosis assay (LipidTOX Red / NucBlue Live fluorescence ratio); conditions: LipidTOX Red to NucBlue Live fluorescence ratio, 24 h, 15 μM
[10] = target: T3, LPLA2 binding to DOPC/sulfatide liposomes (Mus musculus, UniProt Q8VEB4); test: Liposome LPLA2 cosedimentation assay; conditions: 150,000 g
T3 construct: purchased Proteos Inc. (Kalamazoo, MI)
T3 sequence (Q8VEB4 34-412): T1 sequence (Q8VEB4 34-412)

LPLA2 [11] = target: T1, LPLA2; test: LPLA2 esterase assay with pNPB; format: biochemical; conditions: pNPB substrate, no liposomes
Experimental: pNPB was used to directly measure the activity of LPLA2. pNPB is a water-soluble substrate that can directly access the catalytic site in the absence of liposomes ([25]). A reaction mixture of pNPB (0.2 mM) and cationic amphiphilic compounds at varying concentrations in sodium citrate buffer (pH 4.5) was prepared and prewarmed to 37°C for 5 min in a total volume of 500 μl. The reaction was initiated by the addition of recombinant LPLA2 (5 μg). At predetermined times, 120 μl of the reaction mixture was transferred to a tube containing 120 μl of 0.2 M NaHCO3 and kept on ice. The cold reaction product was subsequently warmed to 37°C, and the absorbance of the reaction product, p-nitrophenoxide, was measured at 400 nm with a Beckman Du-640 spectrophotometer.

[12] = 1-O-acyl N-acetylsphingosine synthase activity, pH 4.5, DOPC/sulfatide liposomes
[13] = LPLA2 dependent 1-O-acyl N-acetylsphingosine synthase activity

| Compound | Ratio (15 μM) (MDCK cells [1]) | (ΔTm)c-(ΔTm)d, difference in melting temperature of LPLA2 alone or in the presence of drug (LPLA2 [2]) [°C] | IC50 [3, 12] [µM] | IC50 [3, 13] [µM] | In Vivo PLD (phospholipidosis [4]) | In Vitro PLD (phospholipidosis [5]) | further results |
| --- | --- | --- | --- | --- | --- | --- | --- |
| Cc1ccc2c(Cl)cc(Cl)c(O)c2n1 [5,7 Dichloro-8-hydroxy-2-methyl quinolone] | 0.29 | 1.88 ± 0.9 | 1180 | 1180 |  |  |  |
| CC1(C)[C@@H](O)CC[C@]2(C)[C@H]3C(=O)C=C4[C@@H]5C[C@@](C)(C(=O)O)CC[C@]5(C)CC[C@@]4(C)[C@]3(C)CC[C@@H]12 [18 Beta-glycyrrhetinic acid] | 0.4 | 1.88 ± 0.6 |  | 2430 |  |  |  |
| CN(C)CCC=C1c2ccccc2CCc2ccccc21 [Amitriptyline, dimethyl(3-{tricyclo[9.4.0.0^3,^8]pentadeca-1(15),3,5,7,11,13-hexaen-2-ylidene}propyl)amine] |  | -0.5 ± 0.0 | 14.7 |  | R | Yes |  |
| CN(C)CCCN1c2ccccc2Sc2ccc(Cl)cc21 [Chlorpromazine, [3-(2-chloro-10H-phenothiazin-10-yl)propyl] dimethylamine] |  | -2.1 ± 0.2 | 9.01 |  | R, D | Yes |  |
| CN(C)CCCC1(c2ccc(F)cc2)OCc2cc(C#N)ccc21 (centres unmarked) [Citalopram, 1-[3-(dimethylamino)propyl]-1-(4-fluorophenyl)-1,3-dihydro-2-benzofuran-5-carbonitrile] |  | 0 | 19.5 |  | Yes | Yes |  |
| C[C@H]1[C@H]2CC[C@H]3[C@@H]4CC=C5C[C@@H](N(C)C)CC[C@]5(C)[C@H]4CC[C@]23CN1C [Conessin] | 1.08 | 0.20 ± 01 |  | 31.3 |  |  |  |
| CNCCCN1c2ccccc2CCc2ccccc21 [Desipramine, (3-{2-azatricyclo [9.4.0.0]pentadeca-1(15),3,5,7,11,13-hexaen-2-yl}propyl)(methyl)amine] |  | 1.60 ± 0.1 | 25.7 |  | R | Yes |  |
| CN(C)CCC=C1c2ccccc2COc2ccccc21 [Doxepin, dimethyl(3-{9-oxatricyclo[9.4.0.0ˆ[1]]pentadeca-1(15),3,5,7,11,13-hexaen-2-ylidene}propyl)amine] |  |  |  |  | Yes | Yes | pKa (basic) ([6]; ref Pubchem and chEMBL databases): 9.76 |
| CCC(=O)O[C@@H](O[P@](=O)(CCCCc1ccccc1)CC(=O)N1C[C@H](C2CCCCC2)C[C@H]1C(=O)O)C(C)C [Fosinopril] |  | -0.90 ± 0.1 | 0.18 | 0.181 |  |  | Inhibition of 1-O-butanoyl-N-acetylsphingosine formation (LPLA2 [7]): no inhibition; Percent area (MDCK cells [8]; 325 nM): increases; Increase in LipidTOX Red particle number versus controls (MDCK cells [8]; 325 nM, 24 h): ~20 fold; LipidTOX Red staining (MDCK cells [8]; 24 h, versus non-treated control): significant increase; Cell number (MDCK cells [8]; versus non-treated control): No change; LipidTOX Red particle number (in words) (MDCK cells [8]; versus non-treated control): significant increase; also recorded: significantly increased; Mean fluorescence intensity (MFI) (MDCK cells [8]; versus non-treated control): significant increase; also recorded: increases; IC50 [3]: 0.18 µM; Ratio (15 μM) (MDCK cells [9]): 0.67; Cosedimentation of liposomes and recombinant LPLA2 [10]: partially inhibited; Inhibition of soluble esterase activity of LPLA2 (LPLA2 [11]): no inhibition; pKa (basic) ([6]; ref Pubchem and chEMBL database): -4.4 |
